From patent US10681909B2, “Herbicidal triazoles” (FMC Corporation, priority 2014, dated 2020)

What was measured:
[1] = tested on: pigweed; test: Test A preemergence; type: in vivo, Amaranthus retroflexus; conditions: 0 to 100 scale (0 no effect, 100 complete control)
Summary of the method: (§1)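 Plant seeds in loam soil blended with sand, then apply test chemical preemergence as a directed soil spray; in parallel, spray potted seedlings (one- to two-leaf, 2 to 10 cm) postemergence. Both treatments use a non-phytotoxic solvent mixture with surfactant.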

[2] = tested on: kochia; test: Test C postemergence; type: in vivo, Kochia scoparia
Summary of the method: (§2)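 Test chemicals in a non-phytotoxic solvent mixture with surfactant were applied to pots of plants at 2 to 18 cm (1- to 4-leaf stage) for postemergence treatment, grown in a peat-based medium with vermiculite, starter nutrients and dolomitic limestone. Preemergence treatment was to seeds freshly planted in loam soil mixed with sand.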

[3] = tested on: foxtail, giant; test: Test A preemergence; type: in vivo, Setaria faberii; conditions: 0 to 100 scale (0 no effect, 100 complete control)
Summary of the method: as §1

[4] = tested on: barnyardgrass; test: Test A preemergence; type: in vivo, Echinochloa crus-galli; conditions: 0 to 100 scale (0 no effect, 100 complete control)
Summary of the method: as §1

[5] = tested on: soybean; test: Test C postemergence; type: in vivo, Glycine max
Summary of the method: as §2

[6] = tested on: blackgrass; test: Test C postemergence; type: in vivo, Alopecurus myosuroides
Summary of the method: as §2

[7] = tested on: velvetleaf; test: Test C postemergence; type: in vivo, Abutilon theophrasti
Summary of the method: as §2

[8] = tested on: wheat; test: Test A postemergence; type: in vivo, Triticum aestivum; conditions: 0 to 100 scale (0 no effect, 100 complete control), approx. 10 d
Summary of the method: as §1

[9] = tested on: barnyardgrass; test: Test C postemergence; type: in vivo, Echinochloa crus-galli
Summary of the method: as §2

[10] = tested on: morningglory; test: Test C postemergence; type: in vivo, Ipomoea coccinea
Summary of the method: as §2

[11] = tested on: crabgrass, large; test: Test C postemergence; type: in vivo, Digitaria sanguinalis
Summary of the method: as §2

[12] = tested on: chamomile; test: Test D postemergence; type: in vivo, Matricaria inodora; conditions: scale 0 to 100
Text: Seeds of plant species selected from bluegrass (annual bluegrass, Poa annua), blackgrass (Alopecurus myosuroides), canarygrass (Phalaris minor), chickweed (common chickweed, Stellaria media), galium (catchweed bedstraw, Galium aparine), bromegrass, down (downy bromegrass, Bromus tectorum), Russian thistle (Salsola kali), field poppy (Papaver rhoeas), field violet (Viola arvensis), foxtail, green (green foxtail, Setaria viridis), deadnettle (henbit deadnettle, Lamium amplexicaule), ryegrass, Ital. (Italian ryegrass, Lolium multiflorum), kochia (Kochia scoparia), lambsquarters (Chenopodium album), oilseed rape (Brassica napus), pigweed (Amaranthus retroflexus), chamomile (scentless chamomile, Matricaria inodora), speedwell (bird's-eye speedwell, Veronica persica), barley, spring (spring barley, Hordeum vulgare), wheat, spring (spring wheat, Triticum aestivum), buckwheat, wild (wild buckwheat, Polygonum convolvulus), wild mustard (Sinapis arvensis), oat, wild (wild oat, Avena fatua), radish, wild (wild radish, Raphanus raphanistrum), […]), barley, winter (winter barley, Hordeum vulgare), and wheat, winter (winter wheat, Triticum aestivum) were planted into a silt loam soil and treated preemergence with test chemicals formulated in a non-phytotoxic solvent mixture which included a surfactant. At the same time, these species were planted in pots containing Sunshine Redi-Earth® planting medium comprising spaghnum peat moss, vermiculite, starter nutrients and dolomitic limestone and treated with postemergence applications of the test chemicals formulated in the same manner. Plants ranged in height from 2 to 18 cm (1- to 4-leaf stage). Treated plants and controls were maintained in a controlled growth environment for 14 to 21 d after which time all species were compared to controls and visually evaluated. […] A dash (-) response means no test result.

[13] = tested on: waterhemp; test: Test C postemergence; type: in vivo, Amaranthus rudis
Summary of the method: as §2

FC(F)(F)COc1nc(-c2ccccc2)nn1Cc1ccnc(C(F)(F)F)c1 [Compound 24]
100: Plant response rating, Pigweed ([1]; 125 g ai/ha) | Plant response rating, Pigweed ([1]; 500 g ai/ha, approx. 10 d) | Plant response rating, Foxtail, Giant ([3]; 125 g ai/ha) | Plant response rating, Foxtail, Giant ([3]; 500 g ai/ha, approx. 10 d) | Plant response rating (scale of 0 to 100 where 0 is no effect and 100 is complete control) ([13]; 31 g ai/ha)
10: Plant response rating (scale of 0 to 100 where 0 is no effect and 100 is complete control) ([11]; 62 g ai/ha)
15: Plant response rating (scale of 0 to 100 where 0 is no effect and 100 is complete control) ([11]; 31 g ai/ha)
30: Plant response rating, Wheat ([8]; 500 g ai/ha) | Plant response rating (scale of 0 to 100 where 0 is no effect and 100 is complete control) ([9]; 62 g ai/ha) | Plant response rating: Chamomile ([12]; 16 g ai/ha) | Plant response rating: Chamomile ([12]; 125 g ai/ha)
40: Plant response rating (scale of 0 to 100 where 0 is no effect and 100 is complete control) ([5]; 62 g ai/ha) | Plant response rating (scale of 0 to 100 where 0 is no effect and 100 is complete control) ([5]; 250 g ai/ha)
35: Plant response rating (scale of 0 to 100 where 0 is no effect and 100 is complete control) ([6]; 125 g ai/ha) | Plant response rating (scale of 0 to 100 where 0 is no effect and 100 is complete control) ([6]; 250 g ai/ha) | Plant response rating (scale of 0 to 100 where 0 is no effect and 100 is complete control) ([9]; 125 g ai/ha) | Plant response rating (scale of 0 to 100 where 0 is no effect and 100 is complete control) ([9]; 250 g ai/ha) | Plant response rating (scale of 0 to 100 where 0 is no effect and 100 is complete control) ([11]; 250 g ai/ha)
55: Plant response rating (scale of 0 to 100 where 0 is no effect and 100 is complete control) ([5]; 31 g ai/ha) | Plant response rating (scale of 0 to 100 where 0 is no effect and 100 is complete control) ([5]; 125 g ai/ha) | Plant response rating (scale of 0 to 100 where 0 is no effect and 100 is complete control) ([7]; 62 g ai/ha)
60: Plant response rating (scale of 0 to 100 where 0 is no effect and 100 is complete control) ([7]; 31 g ai/ha) | Plant response rating (scale of 0 to 100 where 0 is no effect and 100 is complete control) ([7]; 125 g ai/ha) | Plant response rating (scale of 0 to 100 where 0 is no effect and 100 is complete control) ([7]; 250 g ai/ha)
20: Plant response rating, Wheat ([8]; 125 g ai/ha) | Plant response rating: Chamomile ([12]; 31 g ai/ha) | Plant response rating: Chamomile ([12]; 62 g ai/ha)
95: Plant response rating (scale of 0 to 100 where 0 is no effect and 100 is complete control) ([10]; 250 g ai/ha)
50: Plant response rating, Barnyardgrass ([4]; 125 g ai/ha)
25: Plant response rating (scale of 0 to 100 where 0 is no effect and 100 is complete control) ([9]; 31 g ai/ha) | Plant response rating (scale of 0 to 100 where 0 is no effect and 100 is complete control) ([11]; 125 g ai/ha)
5: Plant response rating (scale of 0 to 100 where 0 is no effect and 100 is complete control) ([6]; 31 g ai/ha) | Plant response rating (scale of 0 to 100 where 0 is no effect and 100 is complete control) ([6]; 62 g ai/ha)
98: Plant response rating (scale of 0 to 100 where 0 is no effect and 100 is complete control) ([10]; 31 g ai/ha) | Plant response rating (scale of 0 to 100 where 0 is no effect and 100 is complete control) ([10]; 62 g ai/ha) | Plant response rating (scale of 0 to 100 where 0 is no effect and 100 is complete control) ([13]; 62 g ai/ha) | Plant response rating (scale of 0 to 100 where 0 is no effect and 100 is complete control) ([13]; 125 g ai/ha) | Plant response rating (scale of 0 to 100 where 0 is no effect and 100 is complete control) ([13]; 250 g ai/ha)
90: Plant response rating (scale of 0 to 100 where 0 is no effect and 100 is complete control) ([2]; 31 g ai/ha) | Plant response rating (scale of 0 to 100 where 0 is no effect and 100 is complete control) ([2]; 62 g ai/ha) | Plant response rating (scale of 0 to 100 where 0 is no effect and 100 is complete control) ([2]; 125 g ai/ha) | Plant response rating (scale of 0 to 100 where 0 is no effect and 100 is complete control) ([2]; 250 g ai/ha) | Plant response rating, Barnyardgrass ([4]; 500 g ai/ha, approx. 10 d) | Plant response rating (scale of 0 to 100 where 0 is no effect and 100 is complete control) ([10]; 125 g ai/ha)

FC(F)(F)COc1nc(-c2ccc(Cl)cc2)nn1Cc1ccnc(C(F)(F)F)c1 [Compound 31]
98: Plant response rating (scale of 0 to 100 where 0 is no effect and 100 is complete control) ([13]; 62 g ai/ha) | Plant response rating (scale of 0 to 100 where 0 is no effect and 100 is complete control) ([13]; 250 g ai/ha)
35: Plant response rating (scale of 0 to 100 where 0 is no effect and 100 is complete control) ([5]; 125 g ai/ha) | Plant response rating (scale of 0 to 100 where 0 is no effect and 100 is complete control) ([6]; 31 g ai/ha) | Plant response rating (scale of 0 to 100 where 0 is no effect and 100 is complete control) ([9]; 31 g ai/ha) | Plant response rating (scale of 0 to 100 where 0 is no effect and 100 is complete control) ([9]; 62 g ai/ha) | Plant response rating (scale of 0 to 100 where 0 is no effect and 100 is complete control) ([11]; 62 g ai/ha) | Plant response rating: Chamomile ([12]; 31 g ai/ha)
45: Plant response rating (scale of 0 to 100 where 0 is no effect and 100 is complete control) ([7]; 31 g ai/ha) | Plant response rating (scale of 0 to 100 where 0 is no effect and 100 is complete control) ([9]; 125 g ai/ha)
100: Plant response rating, Pigweed ([1]; 125 g ai/ha) | Plant response rating, Pigweed ([1]; 500 g ai/ha, approx. 10 d) | Plant response rating, Foxtail, Giant ([3]; 125 g ai/ha) | Plant response rating, Foxtail, Giant ([3]; 500 g ai/ha, approx. 10 d) | Plant response rating (scale of 0 to 100 where 0 is no effect and 100 is complete control) ([10]; 250 g ai/ha) | Plant response rating (scale of 0 to 100 where 0 is no effect and 100 is complete control) ([13]; 125 g ai/ha)
65: Plant response rating (scale of 0 to 100 where 0 is no effect and 100 is complete control) ([5]; 62 g ai/ha) | Plant response rating (scale of 0 to 100 where 0 is no effect and 100 is complete control) ([5]; 250 g ai/ha) | Plant response rating (scale of 0 to 100 where 0 is no effect and 100 is complete control) ([7]; 62 g ai/ha) | Plant response rating (scale of 0 to 100 where 0 is no effect and 100 is complete control) ([7]; 125 g ai/ha) | Plant response rating: Chamomile ([12]; 62 g ai/ha)
60: Plant response rating (scale of 0 to 100 where 0 is no effect and 100 is complete control) ([6]; 125 g ai/ha) | Plant response rating (scale of 0 to 100 where 0 is no effect and 100 is complete control) ([10]; 62 g ai/ha) | Plant response rating (scale of 0 to 100 where 0 is no effect and 100 is complete control) ([11]; 125 g ai/ha)
80: Plant response rating (scale of 0 to 100 where 0 is no effect and 100 is complete control) ([6]; 250 g ai/ha) | Plant response rating (scale of 0 to 100 where 0 is no effect and 100 is complete control) ([11]; 250 g ai/ha) | Plant response rating: Chamomile ([12]; 125 g ai/ha)
90: Plant response rating (scale of 0 to 100 where 0 is no effect and 100 is complete control) ([2]; 31 g ai/ha) | Plant response rating (scale of 0 to 100 where 0 is no effect and 100 is complete control) ([2]; 62 g ai/ha) | Plant response rating (scale of 0 to 100 where 0 is no effect and 100 is complete control) ([2]; 125 g ai/ha) | Plant response rating (scale of 0 to 100 where 0 is no effect and 100 is complete control) ([2]; 250 g ai/ha) | Plant response rating, Barnyardgrass ([4]; 125 g ai/ha) | Plant response rating, Barnyardgrass ([4]; 500 g ai/ha, approx. 10 d)
75: Plant response rating (scale of 0 to 100 where 0 is no effect and 100 is complete control) ([7]; 250 g ai/ha) | Plant response rating (scale of 0 to 100 where 0 is no effect and 100 is complete control) ([9]; 250 g ai/ha) | Plant response rating (scale of 0 to 100 where 0 is no effect and 100 is complete control) ([10]; 125 g ai/ha)
20: Plant response rating (scale of 0 to 100 where 0 is no effect and 100 is complete control) ([11]; 31 g ai/ha) | Plant response rating: Chamomile ([12]; 16 g ai/ha)
50: Plant response rating (scale of 0 to 100 where 0 is no effect and 100 is complete control) ([6]; 62 g ai/ha)
40: Plant response rating (scale of 0 to 100 where 0 is no effect and 100 is complete control) ([5]; 31 g ai/ha) | Plant response rating, Wheat ([8]; 500 g ai/ha)
30: Plant response rating, Wheat ([8]; 125 g ai/ha)
95: Plant response rating (scale of 0 to 100 where 0 is no effect and 100 is complete control) ([10]; 31 g ai/ha) | Plant response rating (scale of 0 to 100 where 0 is no effect and 100 is complete control) ([13]; 31 g ai/ha)
